The subject of series [1] is rat mixed cortical cultures (RMCC). The series can be described thus: Aβ1-42 toxicity in rat mixed cortical cultures, LDH measurement. It is filed as cell-based. Conditions: for LDH release following Aβ1-42 insult: study arm A, B or C. The method, then: (§1) Whether pre-treatment with tissue kallikrein protects rat mixed cortical cultures against exposure to human amyloid beta peptide (Aβ1-42) was investigated. Cell death was analyzed by LDH-release, an indication of necrosis, and cell viability was also analyzed by neuronal cell count. First (Study Arm A), tissue kallikrein was added to the cells only prior to the Aβ1-42 insult (at −24 h and at −30 min). Whereas in the second part (Study Arm B), tissue kallikrein was added to the cells prior to (−30 min) and also at +24 h after the Aβ1-42 insult. At the +24 h time point, cell culture media were not changed (tissue kallikrein or corresponding amount of vehicle was added to the wells), whereas at −24 h and −30 min time point cell culture media were changed.
(§2) […] Cell Culture. Mixed cortical cultures were prepared from E18 Wistar rat embryos (National Animal Center, Kuopio, Finland). The cortices were dissected out, and the tissue cut to small pieces. The cells were separated by 15-min incubation with DNase and papain. The cells were collected by centrifugation (1500 rpm, 5 min). The tissue was triturated with a pipette and the cells were plated on poly-L-lysine-coated 48-well plates, 300,000 cells/cm^2, in MEM (2 g/L glucose) supplemented with 2 mM glutamine, 0.1 μg/ml gentamicin, 10% heat-inactivated fetal bovine serum (FBS-HI) and 10% heat-inactivated horse serum (HS-HI). After 3-4 h, the media were changed to MEM (2 g/L glucose) supplemented with 2 mM glutamine, 0.1 μg/ml gentamicin, 5% HS-HI. After three days in vitro, media containing MEM (2 g/L glucose) supplemented with glutamine, gentamicin, and 5% of both sera were changed to the cells. On day 6 in vitro, the unwanted cell division was inhibited by adding cytosine arabinoside (10 μM final concentration) for 24 h. The cultures were refed with MEM (2 g/L glucose) supplemented with glutamine, gentamicin, and 5% HS-HI before experiments.
(§3) Aβ1-42 Exposure. Tissue kallikrein (SEQ ID NO:1) was dissolved and further diluted in MEM supplemented with glucose, glutamine, gentamicin, and 5% HS-HI. As a control for total neuronal death, 300 μM N-methyl-D-aspartic acid (NMDA) for 48 h was used, and 10 μM Aβ1-42 for 48 h was used to induce approximately 30-50% cell death. Wells treated with media only served as 0-control. Tissue kallikrein or vehicle was pipetted to the cells −24 h and −30 min before adding 10 μM Aβ1-42 (final concentration). Tissue kallikrein or vehicle was again pipetted to the cells at +24 h after exposure.
LDH Measurement. After 48 h, the culture media of all wells were collected, and possible cell debris was removed by centrifugation (13,000 rpm for 3 min). A 100 μl aliquot was pipetted into a microtiter plate as duplicates, and equal amount of LDH reagent was pipetted to the wells. The absorbance at 340 nm was measured immediately using a 3 min kinetic measurement protocol in Multiskan ELISA reader (Labsystems, Finland). The change in absorbance/min was determined, which was directly proportional to the released LDH. The remaining supernatant (50 μl) was snap-frozen in dry ice for storage.
Data Analysis. The number of wells per compound concentration used was 6 (n=6). Five concentrations of Tissue kallikrein were studied (0.001, 0.01, 0.1, 1, 10 μg/ml) in both study arms. Statistical analysis was performed using StatsDirect statistical software. The values were analyzed by one-way ANOVA followed by Dunnet's test (comparison to the vehicle-treated group). Results are presented as mean±standard deviation (SD) and differences are considered to be statistically significant at the P<0.05 level.

The test system is the same in series [2]. In words: Aβ1-42 toxicity in rat mixed cortical cultures, neuronal survival (NeuN cell count). It counts as cell-based. Conditions: 1 nM, 5 nM, 10 nM, 50 nM and 100 nM; study arm A, B or C. The method, then:
as §1, §2, §3
Immunocytochemistry for Neuronal Survival. For neuronal counts, the cultures were fixed with 4% paraformaldehyde in 0.01 M PBS for 30 min and washed twice with PBS. The fixed cells were first permeabilized, and non-specific binding blocked by 30 min incubation with blocking buffer containing 1% bovine serum albumin and 0.3% Triton® X-100 in PBS. Anti-neuronal nuclei antibody (anti-NeuN, dilution 1:500, Chemicon, Temecula, Calif.) was used as the primary antibody. The cells were incubated with the primary antibody for 48 h, followed by incubation with a biotinylated secondary antibody (1:200, Vector Labs) for 2 h, and the avidin-biotin-peroxidase complex (ABC-reagent, 1:200, Vector ABC Elite Kit, Vector Labs) for 2 h. The positive cells were visualized using Ni-enhanced DAB as a substrate (DAB Substrate kit, Vector Labs). The NeuN immunopositive neurons were counted using a light microscope. Altogether, 2 fields of each well were counted. The results are shown as percent viable neurons.
Data Analysis. The number of wells per compound concentration used was 6 (n=6). […] Statistical analysis was performed using StatsDirect statistical software. The values were analyzed by one-way ANOVA followed by Dunnet's test (comparison to the vehicle-treated group). Results are presented as mean±standard deviation (SD) and differences are considered to be statistically significant at the P<0.05 level.

As for “lysyl-bradykinin [kallidin, reference compound]”, the “LDH release following Aβ1-42 insult” value in series [1] (1 nM, 5 nM, 10 nM, 50 nM and 100 nM) is recorded as “did not alter LDH release”; in series [1] (1 μM and 10 μM), “did alter LDH release”. Further, the “cell death following Aβ1-42 insult (LDH)” value in series [1] (100 μM, compared to Aβ1-42 insult alone) is “significantly potentated cell death”. The “cell counts (survival) following Aβ1-42 insult” value in series [2] is “did not affect cell counts”.

(Values after patent US8501695B2, “Tissue kallikrein for the treatment of diseases associated with amyloid protein” (DiaMedica, Inc., priority 2007, dated 2013).)
